Data set [1] is described as follows: circular dichroism (CD) spectroscopy. In kind it is physicochemical. To be noted: 150 mM NaCl, 5 mM MgCl2, pH 7.5, 5 °C, n=2, free‐thiol (red) samples with 5 mol equivalents TCEP. The method, then:
Circular dichroism (CD): All samples were prepared in Tris buffer (25 mM Tris, 150 mM NaCl, 5 mM MgCl2, pH 7.5) with the exception of free sulfhydryl peptides, to which Tris(2‐carboxyethyl)phosphine (TCEP; 5 mol eq. relative to the peptide) was added. CD spectra were recorded using an APP Chirascan CD spectropolarimeter and 1 mm pathlength quartz cuvettes. Sample concentrations were typically 30–120 μM, as determined by UV−V absorption based on a tryptophan extinction coefficient of 5600 M^−1 cm^−1 and, for mal‐constrained variants, a maleimide coefficient of 1700 M^−1 cm^−1.[16, 32] […] Spectra were recorded in duplicate at 5 °C, over wavelengths ranging from 290 to 180 nm, with data collected every 1 nm (1 nm s^−1). A background spectrum for CD buffer alone was also recorded and background ellipticity values were subtracted from raw sample ellipticity values (θ) when calculating mean residue ellipticities (MREs) using Equation 6: (6) MRE=(θλ-θ0)xMw/nxlxc
Where [θ]λ is the observed ellipticity at a given wavelength λ in mdeg, [θ]0 is the ellipticity observed for the buffer, Mw =molar weight of the peptide in g mol^−1, n=number of residues; c=sample concentration (mg mL^−1); l=pathlength of the cuvette in mm. Estimates of peptide % helicity were made using Equation 7, [33] (7) %helicity=(MRE222-MREcoil)x100/-425001-3/n
where MRE222 is the MRE value at 222 nm, MREcoil=640‐45T (with T in °C)=415 deg cm^2 dmol^−1 res^−1 at 5 °C, and n is the number of backbone amide bonds including the N‐terminal acetyl.

For data set [2], the target named is T1, N‐Myc/Aurora‐A interaction (Aurora‐A122‐403‐C290A/C393A) (Homo sapiens, UniProt O14965, C290A/C393A).
T1 construct: Aurora‐A 122‐403‐C290A/C393A protein was produced as described previously; made in house
T1 sequence (O14965 122-403 C290A/C393A): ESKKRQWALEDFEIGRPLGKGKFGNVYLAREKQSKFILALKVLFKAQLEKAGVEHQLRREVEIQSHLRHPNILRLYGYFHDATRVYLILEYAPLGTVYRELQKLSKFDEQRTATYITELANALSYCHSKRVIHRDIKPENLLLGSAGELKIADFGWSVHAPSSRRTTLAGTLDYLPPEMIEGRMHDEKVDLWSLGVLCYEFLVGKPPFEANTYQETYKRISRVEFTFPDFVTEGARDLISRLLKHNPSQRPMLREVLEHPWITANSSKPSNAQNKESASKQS
In words: competition fluorescence anisotropy (FA) assay against fluorescein labelled N‐Myc61‐89. Also: equilibrated 2 h at room temperature. Format: binding. To be noted: SD. The method, then: Fluorescence anisotropy (FA) assays: All assays were performed using 384‐well plates (Greiner Bio‐one, UK). […] All samples were prepared in 25 mM Tris, 150 mM NaCl, 5 mM MgCl2, pH 7.5, and tested in triplicate using an EnVisionTM 2103 MultiLabel plate reader (Perkin Elmer; Waltham, MA, USA). The parameters were set as follows: Excitation wavelength=480 nm (30 nm bandwidth) and emission wavelength=535 nm (30 nm bandwidth). Measured data were processed and analysed as previously described.[31] Specifically, the perpendicular intensity (P) and parallel intensity (S) were subtracted by the control values and used for calculations of intensity and anisotropy using the following Equations 1, 2, 3, 4, and 5: (1) I=2PG+S (2) r=S-PG (3) Lb=r-rmin/λrmax-r+r-rmin (4) [drawing 1] (5) y=rmax+rmin-rmax/1+(x/x0)^p
For competition FA assays, the average anisotropy and the average standard deviation of the values derived from equation (2) were calculated and fit to a sigmoidal logistic model (equation (5)) using Origin 2021. […] Results are reported as IC50±SD, with data points representing the mean of three replicates and error bars indicating the corresponding SD. Where applicable, ΔΔG was determined as follows: ΔΔG=−RT ln (ΔIC50).
Background: In fluorescence polarisation assays a small probe gives low polarisation when free and higher when bound to something large.

*1 amine or outer side, *2 acyl side, *3 side chain or, on linkers, in order; H or OH if unused. Where a SMILES comes first, the peptide text is derived from it. Bridges are numbered along the chain shown (N, C = ends). Maleimide(3,4-diyl) = O=C1NC(=O)C([*:2])=C1[*:1]

Turning to `CSCC[C@H](NC(=O)[C@H](CCC(=O)O)NC(=O)[C@@H](NC(=O)[C@H](CS)NC(=O)[C@H](Cc1c[nH]c2ccccc12)NC(=O)[C@H](CO)NC(=O)[C@@H]1CCCN1C(=O)[C@@H]1CCCN1C(=O)[C@H](CCC(=O)O)NC(=O)[C@H](CO)NC(=O)[C@H](CO)NC(=O)[C@H](Cc1c[nH]cn1)NC(=O)[C@H](CCC(=O)O)NC(=O)[C@H](C)NC(=O)[C@H](Cc1ccccc1)NC(=O)CNC(=O)[C@H](CCCNC(=N)N)NC(=O)[C@H](CO)NC(=O)[C@@H]1CCCN1C(=O)[C@H](CO)NC(=O)[C@H](CC(C)C)NC(C)=O)[C@@H](C)O)C(=O)N[C@@H](CS)C(=O)N[C@@H](CC(C)C)C(=O)N[C@@H](CCC(=O)O)C(=O)N[C@@H](CC(N)=O)C(=O)N[C@@H](CCC(=O)O)C(=O)N[C@@H](CC(C)C)C(=O)N[C@@H](Cc1c[nH]c2ccccc12)C(=O)NCC(N)=O` [N-Myc 61-89 V78C/L82C red] (Ac-LSPSRGFAEHSSEPPSWCTEMCLENELWG-NH2), the “MRE222 (mean residue ellipticity at 222 nm)” value in data set [1] (25 mM Tris, mean ± SD, SD) was -1692 ± 70 deg cm^−1 dmol^−1 res^−1. Further, in data set [1] (from MRE222 by equation 7, 25 mM Tris), the “% Helicity (estimated)” value is reported as 6 ± 1%.

With `CC(=O)N[C@@H](CC(C)C)C(=O)N[C@@H](CO)C(=O)N1CCC[C@H]1C(=O)N[C@@H](CO)C(=O)N[C@@H](CCCNC(=N)N)C(=O)NCC(=O)N[C@@H](Cc1ccccc1)C(=O)N[C@@H](C)C(=O)N[C@@H](CCC(=O)O)C(=O)N[C@@H](Cc1c[nH]cn1)C(=O)N[C@@H](CO)C(=O)N[C@@H](CO)C(=O)N[C@@H](CCC(=O)O)C(=O)N1CCC[C@H]1C(=O)N1CCC[C@H]1C(=O)N[C@@H](CO)C(=O)N[C@@H](Cc1c[nH]c2ccccc12)C(=O)N[C@H](C(=O)N[C@H](C(=O)N[C@@H](CCC(=O)O)C(=O)N[C@H]1CSC2=C(SC[C@@H](C(=O)N[C@@H](CCC(=O)O)C(=O)N[C@@H](CC(C)C)C(=O)N[C@@H](Cc3c[nH]c4ccccc34)C(=O)NCC(N)=O)NC(=O)[C@H](CCC(=O)O)NC(=O)[C@H](CC(C)C)NC(=O)[C@H](CC(C)C)NC1=O)C(=O)NC2=O)[C@@H](C)O)C(C)C` [N-Myc 61-89 M81C/N85C mal] (Ac-LSPSRGFAEHSSEPPSWVTECLLECELWG-NH2; linker 21-25 via Maleimide(3,4-diyl)), in data set [2], the IC50 came to 133 ± 3 µM.

In data set [2], `CSCC[C@H](NC(=O)[C@H](CCC(=O)O)NC(=O)[C@@H](NC(=O)[C@@H](NC(=O)[C@H](Cc1c[nH]c2ccccc12)NC(=O)[C@H](CO)NC(=O)[C@@H]1CCCN1C(=O)[C@@H]1CCCN1C(=O)[C@H](CCC(=O)O)NC(=O)[C@H](CO)NC(=O)[C@H](CO)NC(=O)[C@H](Cc1c[nH]cn1)NC(=O)[C@H](CCC(=O)O)NC(=O)[C@H](C)NC(=O)[C@H](Cc1ccccc1)NC(=O)CNC(=O)[C@H](CCCNC(=N)N)NC(=O)[C@H](CO)NC(=O)[C@@H]1CCCN1C(=O)[C@H](CO)NC(=O)[C@H](CC(C)C)NC(C)=O)C(C)C)[C@@H](C)O)C(=O)N[C@H]1CSC2=C(SC[C@@H](C(=O)N[C@@H](CC(C)C)C(=O)N[C@@H](Cc3c[nH]c4ccccc34)C(=O)NCC(N)=O)NC(=O)[C@H](CC(N)=O)NC(=O)[C@H](CCC(=O)O)NC(=O)[C@H](CC(C)C)NC1=O)C(=O)NC2=O` [N-Myc 61-89 L82C/E86C mal] (Ac-LSPSRGFAEHSSEPPSWVTEMCLENCLWG-NH2; linker 22-26 via Maleimide(3,4-diyl)) returned an IC50 of 69 ± 18 µM.

Turning to `CSCC[C@@H]1NC(=O)[C@H](CCC(=O)O)NC(=O)[C@@H](NC(=O)[C@@H](NC(=O)[C@H](Cc2c[nH]c3ccccc23)NC(=O)[C@H](CO)NC(=O)[C@@H]2CCCN2C(=O)[C@@H]2CCCN2C(=O)[C@H](CCC(=O)O)NC(=O)[C@H](CO)NC(=O)[C@H](CO)NC(=O)[C@H](Cc2c[nH]cn2)NC(=O)[C@H](CCC(=O)O)NC(=O)[C@H](C)NC(=O)[C@H](Cc2ccccc2)NC(=O)CNC(=O)[C@H](CCCNC(=N)N)NC(=O)[C@H](CO)NC(=O)[C@@H]2CCCN2C(=O)[C@H](CO)NC(=O)[C@H](CC(C)C)NC(C)=O)C(C)C)CSC2=C(SC[C@@H](C(=O)N[C@@H](CCC(=O)O)C(=O)N[C@@H](CC(N)=O)C(=O)N[C@@H](CCC(=O)O)C(=O)N[C@@H](CC(C)C)C(=O)N[C@@H](Cc3c[nH]c4ccccc34)C(=O)NCC(N)=O)NC(=O)[C@H](CC(C)C)NC1=O)C(=O)NC2=O` [N-Myc 61-89 T79C/L83C mal] (Ac-LSPSRGFAEHSSEPPSWVCEMLCENELWG-NH2; linker 19-23 via Maleimide(3,4-diyl)), in data set [2], the IC50 is 99 ± 2 µM.

Turning to `CSCC[C@H](NC(=O)[C@@H]1CSC2=C(SC[C@H](NC(=O)[C@@H]3CCCN3C(=O)[C@@H]3CCCN3C(=O)[C@H](CCC(=O)O)NC(=O)[C@H](CO)NC(=O)[C@H](CO)NC(=O)[C@H](Cc3c[nH]cn3)NC(=O)[C@H](CCC(=O)O)NC(=O)[C@H](C)NC(=O)[C@H](Cc3ccccc3)NC(=O)CNC(=O)[C@H](CCCNC(=N)N)NC(=O)[C@H](CO)NC(=O)[C@@H]3CCCN3C(=O)[C@H](CO)NC(=O)[C@H](CC(C)C)NC(C)=O)C(=O)N[C@@H](Cc3c[nH]c4ccccc34)C(=O)N[C@@H](C(C)C)C(=O)N[C@@H]([C@@H](C)O)C(=O)N1)C(=O)NC2=O)C(=O)N[C@@H](CC(C)C)C(=O)N[C@@H](CC(C)C)C(=O)N[C@@H](CCC(=O)O)C(=O)N[C@@H](CC(N)=O)C(=O)N[C@@H](CCC(=O)O)C(=O)N[C@@H](CC(C)C)C(=O)N[C@@H](Cc1c[nH]c2ccccc12)C(=O)NCC(N)=O` [N-Myc 61-89 S76C/E80 mal] (Ac-LSPSRGFAEHSSEPPCWVTCMLLENELWG-NH2; linker 16-20 via Maleimide(3,4-diyl)), the IC50 in data set [2] was determined as 147 ± 13 µM.

Regarding `CSCC[C@H](NC(=O)[C@H](CCC(=O)O)NC(=O)[C@@H](NC(=O)[C@@H](NC(=O)[C@H](Cc1c[nH]c2ccccc12)NC(=O)[C@H](CO)NC(=O)[C@@H]1CCCN1C(=O)[C@@H]1CCCN1C(=O)[C@H](CCC(=O)O)NC(=O)[C@H](CO)NC(=O)[C@H](CO)NC(=O)[C@H](Cc1c[nH]cn1)NC(=O)[C@H](CCC(=O)O)NC(=O)[C@H](C)NC(=O)[C@H](Cc1ccccc1)NC(=O)CNC(=O)[C@H](CCCNC(=N)N)NC(=O)[C@H](CO)NC(=O)[C@@H]1CCCN1C(=O)[C@H](CO)NC(=O)[C@H](CC(C)C)NC(C)=O)C(C)C)[C@@H](C)O)C(=O)N[C@@H](CC(C)C)C(=O)N[C@H]1CSC2=C(SC[C@@H](C(=O)N[C@@H](Cc3c[nH]c4ccccc34)C(=O)NCC(N)=O)NC(=O)[C@H](CCC(=O)O)NC(=O)[C@H](CC(N)=O)NC(=O)[C@H](CCC(=O)O)NC1=O)C(=O)NC2=O` [N-Myc 61-89L83C/L87C mal] (Ac-LSPSRGFAEHSSEPPSWVTEMLCENECWG-NH2; linker 23-27 via Maleimide(3,4-diyl)), the IC50 in data set [2] is 129 ± 3 µM.

In data set [2], `CSCC[C@@H]1NC(=O)[C@@H](NC(=O)[C@@H](NC(=O)[C@@H](NC(=O)[C@H](Cc2c[nH]c3ccccc23)NC(=O)[C@H](CO)NC(=O)[C@@H]2CCCN2C(=O)[C@@H]2CCCN2C(=O)[C@H](CCC(=O)O)NC(=O)[C@H](CO)NC(=O)[C@H](CO)NC(=O)[C@H](Cc2c[nH]cn2)NC(=O)[C@H](CCC(=O)O)NC(=O)[C@H](C)NC(=O)[C@H](Cc2ccccc2)NC(=O)CNC(=O)[C@H](CCCNC(=N)N)NC(=O)[C@H](CO)NC(=O)[C@@H]2CCCN2C(=O)[C@H](CO)NC(=O)[C@H](CC(C)C)NC(C)=O)C(C)C)[C@@H](C)O)CSC2=C(SC[C@@H](C(=O)N[C@@H](CC(N)=O)C(=O)N[C@@H](CCC(=O)O)C(=O)N[C@@H](CC(C)C)C(=O)N[C@@H](Cc3c[nH]c4ccccc34)C(=O)NCC(N)=O)NC(=O)[C@H](CC(C)C)NC(=O)[C@H](CC(C)C)NC1=O)C(=O)NC2=O` [N-Myc 61-89 E80C/E84C mal] (Ac-LSPSRGFAEHSSEPPSWVTCMLLCNELWG-NH2; linker 20-24 via Maleimide(3,4-diyl)) had an IC50 of 86 ± 7 µM.

For orientation: IC50 means the concentration at which inhibition is half-maximal. Lower therefore signals higher potency.

These data come from article PMC10962542, “Inhibition of Aurora‐A/N‐Myc Protein–Protein Interaction Using Peptidomimetics: Understanding the Role of Peptide Cyclization” (Chembiochem, 2023).
